Results reported in patent publication US20240336611A1 (Insilico Medicine IP Limited, priority 2021, published 2024).

Assays:
[1] = biological target: T1, TNIK kinase [amino acid sequence (1-367), Invitrogen] (Homo sapiens, UniProt Q9UKE5); assay: TNIK kinase inhibition assay (Z-lyte FRET-peptide); assay type: biochemical; conditions: 0.625 nM TNIK kinase, 2 μM Ser/Thr 7 peptide, 64 μM ATP, one hour at room temperature
T1 construct: purchased Invitrogen

[2] = Metabolic stability in human liver microsomes; assay type: in vitro ADME; conditions: LM Clint (intrinsic clearance); 1 μM test compound, 0.5 mg protein/mL microsome, 37° C., up to 60 min
Method: 2.1. Test Compound and Control Working Solution Preparation: Working solution: 5 µL of compound and control stock solution (10 mM in dimethyl sulfoxide (DMSO)) were diluted with 495 μL of acetonitrile (ACN) (intermediate solution concentration: 100 μM, 99% ACN).
2.2.1. […] 2.2.2. Preparation Procedure: The appropriate amount of NADPH powder were weighed and diluted into a 10 mM MgCl2 solution (working solution concentration: 10 unit/mL; final concentration in reaction system: 1 unit/mL).
2.3.2. Preparation Procedure: The appropriate concentrations of microsome working solutions were prepared in 100 mM potassium phosphate buffer. 2.4. Stop Solution Preparation: Cold (4° C.) acetonitrile (ACN) containing 200 ng/mL tolbutamide and 200 ng/mL labetalol as internal standards (IS) were used as the stop solution.
2.5.1. Pre-warm empty ‘Incubation’ plates T60 and NCF60 for 10 min minutes. 2.5.2. Liver microsomes were diluted to 0.56 mg/mL in 100 mM phosphate buffer. 2.5.3. 445 uL microsome working solutions (0.56 mg/mL) were transferred into pre-warmed ‘Incubation’ plates T60 and NCF60. Then ‘Incubation’ plates T60 and NCF60 were pre-incubated for 10 min at 37° C. with constant shaking. 54 μL liver microsomes were transferred to blank plate, then 6 μL NAPDH cofactor were added to the blank plate, and then 180 μL quenching solution can be added to blank plate. 2.5.4 5 μL compound working solution (100 μM) were added into ‘incubation’ plates (T60 and NCF60) containing microsomes and mix 3 times thoroughly. 2.5.5. For the NCF60 plate, 50 uL of buffer were added and were mixed 3 times thoroughly. Start timing; plate was incubated at 37° C. for 60 min while shaking. 2.5.6. In ‘Quenching’ plate TO, 180 μL quenching solution were added and 6 μL NAPDH cofactor were added. Ensured the plate was chilled to prevent evaporation. 2.5.7. For the T60 plate, were mixed 3 times thoroughly, and immediately removed 54 μL mixture for the 0-min time point to ‘Quenching’ plate. Then 44 μL NAPDH cofactor were added to incubation plate (T60). Start timing; plate were incubated at 37° C. for 60 min while shaking.
2.5.8. At 5, 10, 20, 30, and 60 min, 180 μL quenching solution were added to ‘Quenching’ plates, mix once, and were serially transferred 60 μL sample from T60 plate per time point to ‘Quenching’ plates.
2.5.9. For NCF60: were mixed once, and 60 μL sample were transferred from the NCF60 incubation to ‘Quenching’ plate containing quenching solution at the 60-min time point.
2.5.10. All sampling plates were shaken for 10 min, then centrifuged at 4000 rpm for 20 minutes at 4° C. 2.5.11. 80 μL supernatant were transferred into 240 μL HPLC water, and were mixed by plate shaker for 10 min. 2.5.12. Each bioanalysis plate were sealed and shaken for 10 minutes prior to LC-MS/MS analysis.
3.1. The equation of first order kinetics were used to calculate T1/2 and Intrinsic clearance (CLint mic) in (μL/min/mg).
Equation of first order kinetic.

T1 sequence (Q9UKE5 1-367): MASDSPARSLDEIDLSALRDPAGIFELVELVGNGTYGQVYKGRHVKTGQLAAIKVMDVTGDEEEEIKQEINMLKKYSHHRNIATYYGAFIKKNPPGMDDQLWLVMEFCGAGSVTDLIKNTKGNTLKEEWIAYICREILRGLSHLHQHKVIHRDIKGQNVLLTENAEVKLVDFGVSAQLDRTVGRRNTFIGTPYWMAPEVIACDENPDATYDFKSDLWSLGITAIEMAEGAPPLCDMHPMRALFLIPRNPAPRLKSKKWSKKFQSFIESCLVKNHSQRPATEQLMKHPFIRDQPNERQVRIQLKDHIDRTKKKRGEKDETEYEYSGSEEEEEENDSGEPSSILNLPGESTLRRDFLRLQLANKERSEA

Compound | IC50 [1] [nM] | Human Liver Microsome (μM/min/mg) [2]
CC(C)c1noc(-c2ccc(F)cc2)c1-c1nc(C(=O)Nc2ccc(N3CC4CC(C3)N4C)cn2)cs1 [Compound 95, 2-(5-(4-fluorophenyl)-3-isopropylisoxazol-4-yl)-N-(5-(6-methyl-3,6-diazabicyclo[3.1.1]heptan-3-yl)pyridin-2-yl)thiazole-4-carboxamide] | 1 to 12 | ++ (10-100 μM/min/mg as ++)
CC(C)n1cnc(-c2ccc(F)cc2)c1-c1nc(C(=O)Nc2ccc(C3CCOCC3)cn2)c[nH]1 [Compound 53, 5′-(4-fluorophenyl)-3′-isopropyl-N-(5-(tetrahydro-2H-pyran-4-yl)pyridin-2-yl)-1H,3′H-[2,4′-biimidazole]-4-carboxamide] | 1 to 12 | ++ (10-100 μM/min/mg as ++)
CC(C)n1cnc(-c2ccc(F)cc2)c1-c1nc(C(=O)Nc2ccc(N3CCN(C)CC3)cc2F)co1 [Compound 28, N-(2-fluoro-4-(4-methylpiperazin-1-yl)phenyl)-2-(4-(4-fluorophenyl)-1-isopropyl-1H-imidazol-5-yl)oxazole-4-carboxamide] | 1 to 12 | + (>100 μM/min/mg as +)
CN1CCN(c2ccc(NC(=O)c3c[nH]c(-c4c(-c5ccc(F)cc5)ncn4C4CCC4)n3)cc2)CC1 [Compound 26, 3′-cyclobutyl-5′-(4-fluorophenyl)-N-(4-(4-methylpiperazin-1-yl)phenyl)-1H,3′H-[2,4′-biimidazole]-4-carboxamide] | 12 to 150 | ++ (10-100 μM/min/mg as ++)
CN1C2CC1CN(c1ccc(NC(=O)c3csc(-c4c(-c5ccc(F)cc5)ncn4C4CC(F)(F)C4)n3)c(F)c1)C2 [Compound 86, 2-(1-(3,3-difluorocyclobutyl)-4-(4-fluorophenyl)-1H-imidazol-5-yl)-N-(2-fluoro-4-(6-methyl-3,6-diazabicyclo[3.1.1]heptan-3-yl)phenyl)thiazole-4-carboxamide] | 1 to 12 | ++ (10-100 μM/min/mg as ++)
CC(C)c1onc(-c2ccc(F)cc2)c1-c1nc(C(=O)Nc2ccc(C3COC3)cc2F)cs1 [Compound 92, N-(2-fluoro-4-(oxetan-3-yl)phenyl)-2-(3-(4-fluorophenyl)-5-isopropylisoxazol-4-yl)thiazole-4-carboxamide] | 12 to 150 | ++ (10-100 μM/min/mg as ++)
CC(C)n1cnc(-c2ccc(F)cc2)c1-c1csc(C(=O)Nc2ccc(N3CCN(C)CC3)cc2F)n1 [Compound 12, N-(2-fluoro-4-(4-methylpiperazin-1-yl)phenyl)-4-(4-(4-fluorophenyl)-1-isopropyl-1H-imidazol-5-yl)thiazole-2-carboxamide] | 1 to 12 | ++ (10-100 μM/min/mg as ++)
CC(C)c1noc(-c2ccc(F)cc2)c1-c1nc(C(=O)Nc2ccc(C3COC3)cn2)cs1 [Compound 93, 2-(5-(4-fluorophenyl)-3-isopropylisoxazol-4-yl)-N-(5-(oxetan-3-yl)pyridin-2-yl)thiazole-4-carboxamide] | 1 to 12 | ++ (10-100 μM/min/mg as ++)
CC(C)n1cnc(-c2ccc(F)cc2)c1-c1nc(C(=O)Nc2ccc(N3CCN(C)CC3)cc2F)c[nH]1 [Compound 14, N-(2-fluoro-4-(4-methylpiperazin-1-yl)phenyl)-5′-(4-fluorophenyl)-3′-isopropyl-1H,3′H-[2,4′-biimidazole]-4-carboxamide] | 1 to 12 | ++ (10-100 μM/min/mg as ++)
CN1C2CC1CN(c1ccc(NC(=O)c3csc(-c4c(-c5ccc(F)cc5)ncn4C4CC(F)(F)C4)n3)nc1)C2 [Compound 83, 2-(1-(3,3-difluorocyclobutyl)-4-(4-fluorophenyl)-1H-imidazol-5-yl)-N-(5-(6-methyl-3,6-diazabicyclo[3.1.1]heptan-3-yl)pyridin-2-yl)thiazole-4-carboxamide] | 1 to 12 | ++ (10-100 μM/min/mg as ++)
[2H]C([2H])([2H])N1CCN(c2ccc(NC(=O)c3c[nH]c(-c4c(-c5ccc(F)cc5)ncn4C(C)C)n3)c(F)c2)CC1 [Compound 126, 2-[5-(4-fluorophenyl)-3-isopropyl-imidazol-4-yl]-N-[2-fluoro-4-[4-(trideuteriomethyl)piperazin-1-yl]phenyl]-1H-imidazole-4-carboxamide] | 1 to 12 | ++ (10-100 μM/min/mg as ++)
[2H]C([2H])([2H])N1CC(c2ccc(NC(=O)c3csc(-c4c(-c5ccc(F)c(Cl)c5)ncn4C(C)C)n3)nc2)C1 [Compound 123, 2-[5-(3-chloro-4-fluoro-phenyl)-3-isopropyl-imidazol-4-yl]-N-[5-[1-(trideuteriomethyl)azetidin-3-yl]-2-pyridyl]thiazole-4-carboxamide] | 1 to 12 | ++ (10-100 μM/min/mg as ++)

The remaining lines, values ahead:

IC50 [1] [nM] | Human Liver Microsome (μM/min/mg) [2] | Compound
1 to 12 | ++ (10-100 μM/min/mg as ++) | O=C(Nc1ccc(N2CCOCC2)cn1)c1csc(-c2c(-c3ccc(F)cc3)ncn2C2COC2)n1 [Compound 70, 2-(4-(4-fluorophenyl)-1-(oxetan-3-yl)-1H-imidazol-5-yl)-N-(5-morpholinopyridin-2-yl)thiazole-4-carboxamide]
1 to 12 | + (>100 μM/min/mg as +) | CC(C)n1cnc(-c2ccc(F)cc2)c1-c1nc(C(=O)Nc2ccc3c(n2)CN(C)CC3)cs1 [Compound 43, 2-(4-(4-fluorophenyl)-1-isopropyl-1H-imidazol-5-yl)-N-(7-methyl-5,6,7,8-tetrahydro-1,7-naphthyridin-2-yl)thiazole-4-carboxamide]
1 to 12 | + (>100 μM/min/mg as +) | CC(C)n1cnc(-c2ccc(F)cc2)c1-c1nc(C(=O)Nc2ccc(N3CCN(C)CC3)cc2F)cs1 [Compound 6, N-(2-fluoro-4-(4-methylpiperazin-1-yl)phenyl)-2-(4-(4-fluorophenyl)-1-isopropyl-1H-imidazol-5-yl)thiazole-4-carboxamide]
1 to 12 | ++ (10-100 μM/min/mg as ++) | O=C(Nc1ccc(N2CCC2)cn1)c1csc(-c2c(-c3ccc(F)cc3)ncn2C2CC(F)(F)C2)n1 [Compound 68, N-(5-(azetidin-1-yl)pyridin-2-yl)-2-(1-(3,3-difluorocyclobutyl)-4-(4-fluorophenyl)-1H-imidazol-5-yl)thiazole-4-carboxamide]
1 to 12 | ++ (10-100 μM/min/mg as ++) | CC(C)n1cnc(-c2ccc(F)cc2)c1-c1nc(C(=O)Nc2ccc(C3CN(C)C3)cn2)cs1 [Compound 30, 2-(4-(4-fluorophenyl)-1-isopropyl-1H-imidazol-5-yl)-N-(5-(1-methylazetidin-3-yl)pyridin-2-yl)thiazole-4-carboxamide]
1 to 12 | ++ (10-100 μM/min/mg as ++) | CN1CCN(c2ccc(NC(=O)c3csc(-c4c(-c5ccc(F)cc5)ncn4C4CC4)n3)nc2)CC1 [Compound 42, 2-(1-cyclopropyl-4-(4-fluorophenyl)-1H-imidazol-5-yl)-N-(5-(4-methylpiperazin-1-yl)pyridin-2-yl)thiazole-4-carboxamide]
1 to 12 | ++ (10-100 μM/min/mg as ++) | COCCN1CC(c2ccc(NC(=O)c3csc(-c4c(-c5ccc(F)cc5)ncn4C(C)C)n3)nc2)C1 [Compound 109, 2-(4-(4-fluorophenyl)-1-isopropyl-1H-imidazol-5-yl)-N-(5-(1-(2-methoxyethyl)azetidin-3-yl)pyridin-2-yl)thiazole-4-carboxamide]
1 to 12 | + (>100 μM/min/mg as +) | O=C(Nc1ccc(C2COC2)cn1)c1csc(-c2c(-c3ccc(F)cc3)ncn2C2CC(F)(F)C2)n1 [Compound 74, 2-(1-(3,3-difluorocyclobutyl)-4-(4-fluorophenyl)-1H-imidazol-5-yl)-N-(5-(oxetan-3-yl)pyridin-2-yl)thiazole-4-carboxamide]
